For assay [1], the system named is P. aeruginosa (Pa, ATCC 27853). The experiment in a line: microbe, parasite or virus in culture. It is filed as cell-based, Pseudomonas aeruginosa. The note with it: for Antimicrobial Activity (MIC) Gram − Pa: ATCC 27853, 24 h. In a few lines:
(§1)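 Cultures grown in Mueller–Hinton broth were adjusted by OD600 to 2.5–3 × 10^4 CFU/mL and mixed with two-fold peptide dilutions from 256 to 1 µg/mL. Plates were incubated at 35 °C with OD595 monitored every hour for 24 h.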

The subject of assay [2] is B. subtilis (Bs, ATCC 23857). The experiment in a line: microbe, parasite or virus in culture. It is filed as cell-based, Bacillus subtilis. As to conditions: for Antimicrobial Activity (MIC) Gram + Bs: ATCC 23857, 24 h. The method in brief:
as §1

Assay [3] concerns E. coli (Ec, ATCC 25922). The experiment in a line: microbe, parasite or virus in culture. It is filed as cell-based, Escherichia coli. As to conditions: for MIC: Escherichia coli, ATCC25922. In a few lines: as §1
Assay [4] has as its system S. epidermidis RP62A (Se, ATCC 35984). The experiment in a line: microbe, parasite or virus in culture. It is filed as cell-based, Staphylococcus epidermidis. The note with it: for Antimicrobial Activity (MIC) Gram + Se: ATCC 35984, 24 h. In a few lines:
as §1

The test system of assay [5] is C. glutamicum (Cg, ATCC 13032). Description: microbe, parasite or virus in culture. As to conditions: for Antimicrobial Activity (MIC) Gram + Cg: ATCC 13032, 24 h. It is filed as cell-based, Corynebacterium glutamicum. The method in brief:
as §1

Assay [6] has as its system human red blood cells (RBC). Description: Haemolytic activity assay. Format: cell-based. As to conditions: for Selectivity index (SI) G- / Selectivity index (SI) G+ / Selectivity index (SI) Fungi: Table S3, highest tested concentration used where EC50 above it; for Selectivity index (SI) G-: EC50/GM of Gram-negative strains; for Selectivity index (SI) G+: EC50/GM of Gram-positive strains; for Selectivity index (SI) Fungi: EC50/GM of fungi; for SI (selectivity index = EC50/GM): haemolytic EC50 over GM of MIC against all bacterial strains, Table 1; for RBC Tox. (EC50), haemolytic activity: human RBC, 1 h, 37 °C, concentration giving 50% haemolysis. The method in brief:
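Washed human erythrocytes (1% hematocrit final) incubated 1 h at 37 °C with agitation with lipopeptides at 500–3.9 μM in PBS (≤1% DMSO), duplicates. Haemoglobin release read at 545 nm relative to 0.1% Triton X-100; EC50 is 50% haemolysis, averaged from three experiments.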

Assay [7] concerns Gram-positive bacterial strains. The note with it: Table S3; MIC >256 set to 256. The method in brief:
as §1

Assay [8] concerns fungi (A. pullulans, C. albicans, Rhodotorula sp.). Description: Antifungal MIC assay, all fungi together (range or geometric mean). The note with it: Table S3; MIC >128 set to 128. It is filed as cell-based. The method in brief:
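Overnight cultures in potato dextrose broth with 2% glucose at 25–30 °C were diluted to approx. 4 × 10^5 spores/mL and mixed 1:1 with two-fold peptide dilutions plated at 256 to 1 µg/mL. After 48 h at room temperature, OD600 was read. MIC was the lowest concentration giving OD below 10% of the growth control, in triplicate.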

In assay [9] the test system is Gram-negative bacterial strains (E. coli and P. aeruginosa). The experiment in a line: Antibacterial MIC assay, Gram-negative strains together (range or geometric mean). The note with it: Table S3; MIC >256 set to 256. Format: cell-based. In a few lines:
as §1

The structures appear in SMILES notation. Converted amounts (≈) assume the structure as drawn. Like-named read-outs stand apart in the source and are kept apart here. Where a SMILES comes first, the peptide text is derived from it. Bridges are numbered along the chain shown (N, C = ends). The star is where a group is joined. Lauroyl = CCCCCCCCCCCC(=O)*; Octanoyl = CCCCCCCC(=O)*

Turning to `[H]/N=C(\N/C(=N/[H])NCCCCCCNC(=N)NC(=N)Nc1ccc(Cl)cc1)Nc1ccc(Cl)cc1` [Chlorhexidine, reference compound], the MIC in assay [1] (Pseudomonas aeruginosa, ATCC27853, P. aeruginosa ATCC 27853, 24 h, read-out: Antimicrobial Activity (MIC) Gram − Pa) was 6.3 µg/mL (≈ 12.5 µM); in assay [2] (Bacillus subtilis, ATCC23857, B. subtilis ATCC 23857, 24 h, read-out: Antimicrobial Activity (MIC) Gram + Bs) it was 1.6 µg/mL; in [3] (E. coli ATCC 25922, 24 h, read-out: Antimicrobial Activity (MIC) Gram − Ec) it was 1.6 µg/mL (≈ 3.17 µM); in [3] (Table 2, laboratory strain, read-out: MIC E. coli ATCC 25922 (from Table 1)) it was 1.6 µg/mL (≈ 3.17 µM); in assay [4] (Staphylococcus epidermidis, ATCC35984, S. epidermidis RP62A ATCC 35984, 24 h, read-out: Antimicrobial Activity (MIC) Gram + Se) it was 1.6 µg/mL; in assay [5] (Corynebacterium glutamicum, ATCC13032, C. glutamicum ATCC 13032, 24 h, read-out: Antimicrobial Activity (MIC) Gram + Cg) it was 0.8 µg/mL.
Turning to `CCCCCCCC(=O)N[C@H]1CSSC[C@@H](C(=O)N[C@@H](CCCCN)C(=O)N[C@@H](CC(C)C)C(N)=O)NC(=O)[C@H](CCCCN)NC(=O)[C@H](Cc2c[nH]c3ccccc23)NC(=O)CNC(=O)[C@H](Cc2c[nH]c3ccccc23)NC(=O)[C@H](Cc2c[nH]c3ccccc23)NC(=O)[C@H](CCCCN)NC(=O)[C@H](CCCCN)NC(=O)CNC1=O` [Peptide C8-cTurg-2, C8- (CGKKWWGWKC)KL-NH2] (Octanoyl-CGKKWWGWKCKL-NH2; disulfide 1-10), the “Antimicrobial Activity (MIC) Gram − Pa” value in assay [1] is reported as 8 µg/mL. In addition, in [6], the “Selectivity index (SI) G-” value is 78, the “Selectivity index (SI) G+” value was 155, the “Selectivity index (SI) Fungi” value came to 35 and the “SI (selectivity index = EC50/GM)” value was determined as 123. Further, the “RBC Tox. (EC50), haemolytic activity” value in assay [6] stood at 439 µg/mL. In assay [2], the “Antimicrobial Activity (MIC) Gram + Bs” value came to 2 µg/mL. Also, the “GM of MIC G+” value in [7] amounted to 3 µg/mL. Besides, the “GM of MIC Fungi” value in assay [8] came out at 13 µg/mL. Further, the “Antimicrobial Activity (MIC) Gram + Se” value in assay [4] was 4 µg/mL. In addition, in [9], the “GM of MIC G-” value was found to be 6 µg/mL. In addition, the “Antimicrobial Activity (MIC) Gram + Cg” value in assay [5] came to 2 µg/mL.
Turning to `CCCCCCCCCCCC(=O)N[C@H]1CSSC[C@@H](C(=O)N[C@@H](CCCCN)C(=O)N[C@@H](CC(C)C)C(N)=O)NC(=O)[C@H](CCCCN)NC(=O)[C@H](Cc2c[nH]c3ccccc23)NC(=O)CNC(=O)CNC(=O)[C@@H]2CCCN2C(=O)[C@H](CCCCN)NC(=O)[C@H](CCCCN)NC(=O)CNC1=O` [Peptide C12-cTurg-1, C12 -(CGKKPGGWKC)KL-NH2] (Lauroyl-CGKKPGGWKCKL-NH2; disulfide 1-10), in [1], the “Antimicrobial Activity (MIC) Gram − Pa” value was 16 µg/mL. In assay [6], the “Selectivity index (SI) G-” value is 27, the “Selectivity index (SI) G+” value is 77, the “Selectivity index (SI) Fungi” value was 11 and the “SI (selectivity index = EC50/GM)” value was 55. The “RBC Tox. (EC50), haemolytic activity” value in [6] is on record as 219 µg/mL. In [2], the “Antimicrobial Activity (MIC) Gram + Bs” value came to 2 µg/mL. In addition, the “GM of MIC G+” value in assay [7] is on record as 3 µg/mL. Moreover, in assay [3] (ATCC 25922, 2 h), the “MIC E. coli ATCC 25922 (from Table 1)” value was 2 to 4 µg/mL. The “Antimicrobial Activity (MIC) Gram − Ec” value in [3] (ATCC 25922, 24 h) is 4 µg/mL. In addition, the “GM of MIC Fungi” value in assay [8] stood at 20 µg/mL. In addition, the “Antimicrobial Activity (MIC) Gram + Se” value in assay [4] is reported as 4 µg/mL. Moreover, in assay [9], the “GM of MIC G-” value was found to be 8 µg/mL. In assay [5], the “Antimicrobial Activity (MIC) Gram + Cg” value turned out to be 2 µg/mL.
